Results reported in patent US11739098B2 (BRISTOL-MYERS SQUIBB COMPANY, priority 2017, dated 2023).
pIC50: −log10 of the molar value.

Experiments:
Assay type in all cases: cell-based
[1] = molecular target: T1, human TLR7 (Homo sapiens, UniProt Q9NYK1); assay: TLR7 inhibition reporter assay (HEK-Blue cells, SEAP reporter, gardiquimod stimulation); details: HEK-Blue cells overexpressing human TLR7, SEAP reporter, gardiquimod 7.5 μM
T1 construct: host or cells: HEK-Blue cells (HEK293-derived reporter line)
T1 sequence (Q9NYK1 27-1049): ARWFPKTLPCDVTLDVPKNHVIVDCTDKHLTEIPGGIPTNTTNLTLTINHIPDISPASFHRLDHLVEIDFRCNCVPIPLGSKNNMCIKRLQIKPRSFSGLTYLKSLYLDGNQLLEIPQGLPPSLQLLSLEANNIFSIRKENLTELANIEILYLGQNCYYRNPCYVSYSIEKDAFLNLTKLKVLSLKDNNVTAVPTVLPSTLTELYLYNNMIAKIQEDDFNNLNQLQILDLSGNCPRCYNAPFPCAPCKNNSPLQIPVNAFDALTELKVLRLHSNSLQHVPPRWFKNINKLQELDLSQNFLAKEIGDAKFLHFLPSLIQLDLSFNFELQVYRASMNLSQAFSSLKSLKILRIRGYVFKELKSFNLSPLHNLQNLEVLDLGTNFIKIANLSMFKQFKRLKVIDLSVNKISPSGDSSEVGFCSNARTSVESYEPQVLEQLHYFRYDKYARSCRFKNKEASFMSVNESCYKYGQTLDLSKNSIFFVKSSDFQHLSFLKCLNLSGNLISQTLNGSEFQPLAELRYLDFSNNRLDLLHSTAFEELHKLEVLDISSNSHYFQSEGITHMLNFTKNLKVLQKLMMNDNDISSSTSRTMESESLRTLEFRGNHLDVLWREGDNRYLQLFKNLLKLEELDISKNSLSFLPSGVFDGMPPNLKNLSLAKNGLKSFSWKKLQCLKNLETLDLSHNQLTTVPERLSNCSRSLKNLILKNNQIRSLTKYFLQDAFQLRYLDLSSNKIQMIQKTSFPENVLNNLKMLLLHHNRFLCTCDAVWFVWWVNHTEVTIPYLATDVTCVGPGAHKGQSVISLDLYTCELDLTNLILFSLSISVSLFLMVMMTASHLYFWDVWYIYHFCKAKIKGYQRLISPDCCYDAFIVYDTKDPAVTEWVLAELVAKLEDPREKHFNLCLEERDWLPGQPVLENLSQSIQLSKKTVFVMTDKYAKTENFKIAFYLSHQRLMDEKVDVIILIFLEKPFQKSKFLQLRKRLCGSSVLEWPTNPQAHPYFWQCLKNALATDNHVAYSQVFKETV
In short: (§1)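 Agonists (final): TLR7 gardiquimod 7.5 μM; TLR8 R848 15.9 μM; TLR9 ODN2006 5 nM. HEK-Blue reporter cells, 30 min RT compound pre-incubation, 0.05 nM–50 μM dose range, 22 h at 37 °C, colorimetric SEAP detection medium. % inhibition relative to agonist+DMSO and known-inhibitor wells.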

[2] = molecular target: T2, human TLR8 (Homo sapiens, UniProt Q9NR97); assay: TLR8 inhibition reporter assay (HEK-Blue cells, SEAP reporter, R848 stimulation); details: HEK-Blue cells overexpressing human TLR8, SEAP reporter, R848 15.9 μM
T2 construct: host or cells: HEK-Blue cells (HEK293-derived reporter line)
T2 sequence (Q9NR97 27-1041): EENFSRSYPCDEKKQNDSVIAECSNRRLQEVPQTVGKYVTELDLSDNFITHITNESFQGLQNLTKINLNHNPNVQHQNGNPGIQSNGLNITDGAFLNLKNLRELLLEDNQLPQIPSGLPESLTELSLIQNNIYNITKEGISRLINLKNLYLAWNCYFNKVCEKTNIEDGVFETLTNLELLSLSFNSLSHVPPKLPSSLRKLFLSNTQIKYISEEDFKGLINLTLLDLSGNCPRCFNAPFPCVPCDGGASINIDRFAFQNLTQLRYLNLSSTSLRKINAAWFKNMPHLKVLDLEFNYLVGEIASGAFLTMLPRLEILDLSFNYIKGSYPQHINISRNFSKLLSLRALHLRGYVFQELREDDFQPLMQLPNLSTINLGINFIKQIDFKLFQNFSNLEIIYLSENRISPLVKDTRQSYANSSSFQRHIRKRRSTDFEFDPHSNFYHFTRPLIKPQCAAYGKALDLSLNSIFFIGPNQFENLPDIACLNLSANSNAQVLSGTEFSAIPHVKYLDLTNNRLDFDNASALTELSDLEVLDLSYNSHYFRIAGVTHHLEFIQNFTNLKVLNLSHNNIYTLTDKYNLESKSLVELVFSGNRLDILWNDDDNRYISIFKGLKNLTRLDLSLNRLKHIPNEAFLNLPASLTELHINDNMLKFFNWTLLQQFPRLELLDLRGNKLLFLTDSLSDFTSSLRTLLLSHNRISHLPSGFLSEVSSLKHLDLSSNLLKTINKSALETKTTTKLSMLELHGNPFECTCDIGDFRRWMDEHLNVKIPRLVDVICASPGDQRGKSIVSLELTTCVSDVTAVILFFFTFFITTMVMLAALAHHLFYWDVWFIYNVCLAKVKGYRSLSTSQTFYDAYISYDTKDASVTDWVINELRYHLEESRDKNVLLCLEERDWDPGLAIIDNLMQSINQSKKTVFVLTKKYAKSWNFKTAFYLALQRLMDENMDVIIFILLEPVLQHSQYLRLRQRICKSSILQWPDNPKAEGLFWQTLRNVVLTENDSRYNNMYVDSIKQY
In short: as §1

[3] = molecular target: T3, human TLR9 (Homo sapiens, UniProt Q9NR96); assay: TLR9 inhibition reporter assay (HEK-Blue cells, SEAP reporter, ODN2006 stimulation); details: HEK-Blue cells overexpressing human TLR9, SEAP reporter, ODN2006 5 nM
T3 construct: host or cells: HEK-Blue cells (HEK293-derived reporter line)
T3 sequence (Q9NR96 26-1032): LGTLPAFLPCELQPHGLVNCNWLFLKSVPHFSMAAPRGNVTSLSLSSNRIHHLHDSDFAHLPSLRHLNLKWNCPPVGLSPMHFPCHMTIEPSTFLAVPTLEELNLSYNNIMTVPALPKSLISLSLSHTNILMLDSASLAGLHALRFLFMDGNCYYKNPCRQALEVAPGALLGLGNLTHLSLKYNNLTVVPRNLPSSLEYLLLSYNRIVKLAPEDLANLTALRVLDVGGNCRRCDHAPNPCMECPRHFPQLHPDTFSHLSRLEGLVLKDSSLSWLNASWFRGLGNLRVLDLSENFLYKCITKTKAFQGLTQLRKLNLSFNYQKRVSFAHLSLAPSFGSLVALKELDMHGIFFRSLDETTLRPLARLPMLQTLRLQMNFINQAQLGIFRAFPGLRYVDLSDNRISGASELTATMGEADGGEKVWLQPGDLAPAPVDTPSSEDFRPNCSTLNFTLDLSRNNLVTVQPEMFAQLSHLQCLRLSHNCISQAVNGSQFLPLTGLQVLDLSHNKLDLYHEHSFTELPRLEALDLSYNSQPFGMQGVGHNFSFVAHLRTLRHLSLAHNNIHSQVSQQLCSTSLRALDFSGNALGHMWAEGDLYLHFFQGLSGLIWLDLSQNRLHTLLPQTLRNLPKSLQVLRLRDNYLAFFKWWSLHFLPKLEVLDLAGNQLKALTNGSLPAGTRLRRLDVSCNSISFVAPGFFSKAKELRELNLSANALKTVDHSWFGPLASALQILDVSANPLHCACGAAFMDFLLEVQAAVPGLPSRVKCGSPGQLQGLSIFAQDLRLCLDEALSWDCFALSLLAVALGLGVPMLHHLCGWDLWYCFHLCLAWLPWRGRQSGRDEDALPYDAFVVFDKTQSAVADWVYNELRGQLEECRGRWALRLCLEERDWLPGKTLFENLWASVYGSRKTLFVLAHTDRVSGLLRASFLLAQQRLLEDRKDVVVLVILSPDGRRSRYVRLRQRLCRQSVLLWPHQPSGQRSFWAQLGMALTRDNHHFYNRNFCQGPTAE
In short: as §1

SMILES	pIC50 [1]	pIC50 [2]	pIC50 [3]
Cc1c(-c2ccnc3cn[nH]c23)[nH]c2ccc(C3CCNCC3)cc12 [Example 55, 7-(3-methyl-5-(piperidin-4-yl)-1H-indol-2-yl)-1H-pyrazolo [4,3-b]pyridine]	6.00 to 7.00	4.30 to 6.00	4.30 to 6.00
CC(C)c1c(-c2ccnc3[nH]ncc23)[nH]c2cc(F)c(C3CCN(CC4CCN(C(C)C)CC4)CC3)cc12 [Example 966, 4-(6-fluoro-3-isopropyl-5-(1-((1-isopropylpiperidin-4-yl)methyl)piperidin-4-yl)-1H-indol-2-yl)-1H-pyrazolo[3,4-b]pyridine]	> 7.00	> 7.00	> 7.00
Cc1cc(-c2[nH]c3ccc(C4CCN(C(=O)CCN5C[C@H]6CC[C@@H](C5)O6)CC4)cc3c2C(C)C)cn2nnnc12 [Example 622, 3-((1R,5S)-8-oxa-3-azabicyclo[3.2.1]octan-3-yl)-1-(4-(3-isopropyl-2-(8-methyltetrazolo[1,5-a]pyridin-6-yl)-1H-indol-5-yl)piperidin-1-yl)propan-1-one]	> 7.00	> 7.00	4.30 to 6.00
Cc1cc(-c2[nH]c3ccc(C4CCN(CCC(F)(F)F)CC4)cc3c2C(C)C)cn2nnnc12 [Example 962, 6-(3-isopropyl-5-(1-(3,3,3-trifluoropropyl)piperidin-4-yl)-1H-indol-2-yl)-8-methyltetrazolo[1,5-a]pyridine]	> 7.00	> 7.00	< 4.30
CC(C)c1c(-c2ccnc3[nH]ncc23)[nH]c2cc(Cl)c(C3CCNCC3)cc12 [Example 252, 4-(6-chloro-3-isopropyl-5-(piperidin-4-yl)-1H-indol-2-yl)-1H-pyrazolo[3,4-b]pyridine]	> 7.00	> 7.00	6.00 to 7.00
CCc1c(-c2ncnc3[nH]ccc23)[nH]c2ccc(C3CCNCC3)cc12 [Example 206, 4-(3-ethyl-5-(piperidin-4-yl)-1H-indol-2-yl)-7H-pyrrolo[2,3-d] pyrimidine]	6.00 to 7.00	> 7.00	4.30 to 6.00
CC(C)c1c(-c2ccn3cnnc3c2)[nH]c2ccc(C3CCN(C(=O)CN(C)C)CC3)cc12 [Example 466, 1-(4-(2-([1,2,4]triazolo[4,3-a]pyridin-7-yl)-3-isopropyl-1H-indol-5-yl)piperidin-1-yl)-2-(dimethylamino)ethan-1-one]	> 7.00	6.00 to 7.00	6.00 to 7.00
Cc1nc2c(-c3[nH]c4ccc(C5CCNCC5)cc4c3C(C)C)ccc(C)n2n1 [Example 151, 8-(3-isopropyl-5-(piperidin-4-yl)-1H-indol-2-yl)-2,5-dimethyl-[1,2,4]triazolo[1,5-a]pyridine]	6.00 to 7.00	6.00 to 7.00	6.00 to 7.00
Cc1cc(-c2[nH]c3ccc(C4CCN(C5COC5)CC4)cc3c2C(C)C)cc2[nH]c(=O)oc12 [Example 708, 5-(3-isopropyl-5-(1-(oxetan-3-yl)piperidin-4-yl)-1H-indol-2-yl)-7-methylbenzo[d]oxazol-2(3H)-one]	6.00 to 7.00	6.00 to 7.00	4.30 to 6.00

The remaining lines, values ahead:

pIC50 [1]	pIC50 [2]	pIC50 [3]	SMILES
> 7.00	> 7.00	4.30 to 6.00	COc1cc(-c2[nH]c3ccc(C4CCN(CC(=O)N(C)C)CC4)cc3c2C(C)C)cn2cc(C(=O)N(C)C)nc12 [Example 432, 6-(5-(1-(2-(dimethylamino)-2-oxoethyl)piperidin-4-yl)-3-isopropyl-1H-indol-2-yl)-8-methoxy-N,N-dimethylimidazo[1,2-a]pyridine-2-carboxamide]
> 7.00	> 7.00	6.00 to 7.00	CNC(=O)CN1CCC(c2ccc3[nH]c(-c4cc(CO)c5nccn5c4)c(C(C)C)c3c2)CC1 [Example 341, 2-(4-(2-(8-(hydroxymethyl)-6-imidazo[1,2-a]pyridinyl-6-yl)-3-isopropyl-1H-indol-5-yl)piperidin-1-yl)-N-methylacetamide]
> 7.00	6.00 to 7.00	> 7.00	Cc1cn2cc(-c3[nH]c4ccc(C5CCN(CC(=O)N(C)C)CC5)cc4c3C(C)C)c(C)cc2n1 [Example 375, 2-(4-(2-(2,7-dimethylimidazo[1,2-a]pyridin-6-yl)-3-isopropyl-1H-indol-5-yl)piperidin-1-yl)-N,N-dimethylacetamide]
6.00 to 7.00	< 5.51	4.30 to 6.00	CC(C)(O)CC(=O)N1CCC(c2ccc3[nH]c(-c4cc(F)c5nccn5c4)c(CC(F)F)c3c2)CC1 [Example 606, 1-(4-(3-(2,2-difluoroethyl)-2-(8-fluoroimidazo[1,2-a]pyridin-6-yl)-1H-indol-5-yl)piperidin-1-yl)-3-hydroxy-3-methylbutan-1-one]
> 7.00	> 7.00	4.30 to 6.00	CC(C)c1c(-c2cnc3c(cnn3C)c2)[nH]c2ccc(C3CCN(CC(C)(C)O)CC3)cc12 [Example 764, 1-(4-(3-isopropyl-2-(1-methyl-1H-pyrazolo[3,4-b]pyridin-5-yl)-1H-indol-5-yl)piperidin-1-yl)-2-methylpropan-2-ol]
